# System: MT4
# Experiment: Compound was evaluated for antiviral activity in MT-4 cells. Cell culture inhibitor concentration (CIC95) is defined as concentration which inhibited >95% the spread of HIV-1 IIIb infection in susceptible cell culture; value ranges from 0.025-0.050 uM
# Type: functional
# Details: Homo sapiens, read-out: CIC95
row,Compound,IC95
1,CCc1cc(NCc2nc3c(C)ccc(C)c3o2)c(O)nc1C,25 nM
2,CCc1cc(NCc2nc3c(Cl)ccc(Cl)c3o2)c(O)nc1C [L-697661],25 nM

# Target: Human immunodeficiency virus type 1 reverse transcriptase (Human immunodeficiency virus 1, UniProt Q72547)
# Experiment: In vitro HIV-1 RT inhibitory activity using rC.dG as template-primer
# Details: not given
row,Compound,IC50
1,CCc1cc(NCc2nc3cc(F)ccc3o2)c(=O)[nH]c1C,470 nM
2,CCc1cc(N(C)Cc2nc3c(Cl)ccc(Cl)c3o2)c(=O)[nH]c1C,58 nM
3,CCc1cc(NCc2nc3c([N+](=O)[O-])cccc3o2)c(O)nc1C,24500 nM
4,CCc1cc(N(C)Cc2nc3c(C)ccc(C)c3o2)c(=O)[nH]c1C,103 nM
5,CCc1cc(NCc2nc3c(N)cccc3o2)c(O)nc1C,67000 nM
6,COc1cc(NCc2nc3c(Cl)ccc(Cl)c3o2)c(O)nc1C,115 nM
7,CCc1cc(NCc2cc3ccccc3[nH]2)c(=O)[nH]c1C,4400 nM
8,CCc1cc(NCc2cccnc2)c(=O)[nH]c1C,300000 nM
9,CCc1cc(NCc2ccccn2)c(O)nc1C,15000 nM
10,CCc1cc(NCc2nc3c(Cl)cccc3o2)c(O)nc1C,150 nM
11,CCc1cc(NCc2ccc3ccccc3n2)c(=O)[nH]c1C,530 nM
12,CCc1cc(NCc2nc3cc4ccccc4cc3o2)c(=O)[nH]c1C,10000 nM
13,CCc1cc(NCc2ccc3ccccc3c2)c(=O)n(C)c1C,11000 nM
14,CCc1cc(NCc2nc3ccc(C)cc3o2)c(=O)[nH]c1C,1650 nM
15,CCc1cc(N(CC)Cc2nc3c(Cl)ccc(Cl)c3o2)c(O)nc1C,654 nM
16,CCc1cc(NCc2nc3ccccc3[nH]2)c(O)nc1C,7580 nM
17,CCc1cc(NCc2nc3c(F)ccc(Cl)c3o2)c(=O)[nH]c1C,105 nM
18,CCc1cc(NCc2ccco2)c(=O)[nH]c1C,29000 nM
19,CCc1cc(NCc2nc3cccc(Cl)c3o2)c(=O)[nH]c1C,65 nM
20,CCc1cc(NCc2cc3cnccc3o2)c(=O)[nH]c1C,32300 nM
21,CCc1cc(NCc2ccc3ccccc3c2)c(=S)[nH]c1C,300 nM
22,CCc1cc(NCc2ncc(-c3ccccc3)o2)c(=O)[nH]c1C,2350 nM

row,Compound,IC50
1,CCc1cc(NCc2nc3c(F)ccc(F)c3o2)c(=O)[nH]c1C,70 nM
2,CCc1cc(NCc2cc3ccccc3s2)c(O)nc1C,500 nM
3,CSc1cc(NCc2nc3c(Cl)ccc(Cl)c3o2)c(O)nc1C,43 nM
4,CCc1cc(NCc2oc3ccccc3c2C)c(=O)[nH]c1C,1950 nM
5,CCc1cc(NCc2ccc3ccccc3c2)c(=O)[nH]c1C,460 nM
6,CCc1cc(NCc2cc3ccncc3o2)c(O)nc1C,105000 nM
7,CCc1cc(NCc2nc3ncccc3o2)c(O)nc1C,1900 nM
8,CCSc1cc(NCc2nc3ccccc3o2)c(=O)[nH]c1C,430 nM
9,CCc1cc(NCc2cccc3ccccc23)c(=O)[nH]c1C,2100 nM
10,CCc1cc(NCc2ccccc2)c(=O)[nH]c1C,5330 nM
11,CCc1cc(NCc2nc3c(Cl)ccc(Cl)c3o2)c(S)nc1C,42 nM
12,CC(=O)c1cc(NCc2nc3c(Cl)ccc(Cl)c3o2)c(O)nc1C,300 nM
13,Cc1cc(C)c(NCc2nc3c(Cl)ccc(Cl)c3o2)c(=O)[nH]1,2850 nM
14,CCc1cc(NCc2nc3c(o2)CCCC3)c(=O)[nH]c1C,280 nM
15,CCOC(=O)c1cc(NCc2nc3ccccc3o2)c(=O)[nH]c1C,1750 nM
16,C=Cc1cc(NCc2nc3c(Cl)ccc(Cl)c3o2)c(=O)[nH]c1C,23 nM
17,CCc1cc(NCc2nc3c(C)cccc3o2)c(O)nc1C,120 nM
18,CCc1cc(NCc2ccoc2)c(O)nc1C,145000 nM
19,CCc1cc(NCc2cnc3ccccc3c2)c(=O)[nH]c1C,335 nM
20,CCc1cc(NCc2c[nH]c3ccccc23)c(O)nc1C,22500 nM
21,CCc1cc(NCc2cc3ccccc3o2)c(O)nc1C,330 nM
22,O=c1[nH]c2ccccc2cc1NCc1ccc2ccccc2c1,> 300000 nM

row,Compound,IC50
1,CSc1cc(NCc2nc3ccccc3o2)c(O)nc1C,190 nM
2,CCc1cc(NCc2cc3cccc(Cl)c3o2)c(O)nc1C,335 nM
3,Cc1nc(O)c(NCc2nc3ccccc3o2)cc1[S+](C)[O-] (configuration not stated),31500 nM
4,CCc1cc(NCc2coc3ccccc3c2=O)c(=O)[nH]c1C,1100 nM
5,CCc1cc(NC(C)c2ccc3ccccc3c2)c(O)nc1C (configuration not stated),1130 nM
6,CCc1cc(NCc2nc3cccc(CC)c3o2)c(O)nc1C,260 nM
7,CCc1cc(NCc2cc3c(Cl)ccc(Cl)c3o2)c(O)nc1C,57 nM
8,CCc1cc(NCc2nc3c(F)cccc3o2)c(=O)[nH]c1C,110 nM
9,CCc1cc(NCc2nc3cc(C)ccc3o2)c(O)nc1C,1250 nM
10,CCc1c(C)[nH]c(=O)c(NCc2nc3ccccc3o2)c1C,600 nM
11,CCc1cc(NCc2nc3c(O)cccc3o2)c(=O)[nH]c1C,440 nM
12,CCc1cc(NCc2nc3c(ccc4ccccc43)o2)c(O)nc1C,2700 nM
13,CCc1cc(NCc2nc3ccc(F)cc3o2)c(=O)[nH]c1C,1250 nM
14,CCc1cc(NC(C)c2cc3ccccc3o2)c(=O)[nH]c1C (configuration not stated),970 nM
15,CCc1cc(NCc2nc3ccccc3c(=O)[nH]2)c(=O)[nH]c1C,2500 nM
16,CCc1cc(NCc2nc3cccc(F)c3o2)c(=O)[nH]c1C,92 nM
17,Cc1[nH]c(=O)c(NCc2nc3ccccc3o2)cc1S(C)(=O)=O,1150 nM
18,CCc1cc(NCc2nc3c(OC)cccc3o2)c(=O)[nH]c1C,180 nM
19,CCc1cc(N(C)Cc2cc3c(Cl)ccc(Cl)c3o2)c(=O)[nH]c1C,1050 nM
20,Cc1[nH]c(=O)c(NCc2nc3c(Cl)ccc(Cl)c3o2)cc1C(C)O (configuration not stated),1050 nM

# System: MT4
# Experiment: Compound was evaluated for antiviral activity against MT-4 cells. Cell culture inhibitor concentration (CIC95) is defined as those which inhibited by >95% the spread of HIV-1 IIIb infection in susceptible cell culture; value ranges from 0.012-0.025 uM
# Type: functional
# Details: Homo sapiens, read-out: CIC95
row,Compound,IC95
1,Cc1cn([C@H]2C[C@H](N=[N+]=[N-])[C@@H](CO)O2)c(=O)[nH]c1=O [ZIDOVUDINE],12 nM

# System: H9
# Experiment: Compound was evaluated for antiviral activity against H9 cells. Cell culture inhibitor concentration (CIC95) is defined as those which inhibited by >95% the spread of HIV-1 IIIb infection in susceptible cell culture
# Type: functional
# Details: Homo sapiens, read-out: CIC95
row,Compound,IC95
1,Cc1cn([C@H]2C[C@H](N=[N+]=[N-])[C@@H](CO)O2)c(=O)[nH]c1=O [ZIDOVUDINE],20000 nM

# System: H9
# Experiment: Compound was evaluated for antiviral activity in H9 cells. Cell culture inhibitor concentration (CIC95) is defined as uM
# Type: functional
# Details: Homo sapiens, read-out: CIC95
row,Compound,IC95
1,CCc1cc(NCc2nc3c(C)ccc(C)c3o2)c(O)nc1C,100 nM

# System: MT4
# Experiment: Compound was evaluated for antiviral activity in MT-4 cells. Cell culture inhibitor concentration (CIC95) is defined as concentration which inhibited >95% the spread of HIV-1 IIIb infection in susceptible cell culture
# Type: functional
# Details: Homo sapiens, read-out: CIC95
row,Compound,IC95
1,CSc1cc(NCc2nc3c(Cl)ccc(Cl)c3o2)c(O)nc1C,100 nM
2,CCc1cc(NCc2nc3ccccc3o2)c(O)nc1C,200 nM
3,CCc1cc(NCc2cc3c(Cl)ccc(Cl)c3o2)c(O)nc1C,50 nM

# Reference: ChEMBL document CHEMBL1125315, “Synthesis and evaluation of 2-pyridinone derivatives as HIV-1-specific reverse transcriptase inhibitors. 2. Analogues of 3-aminopyridin-2(1H)-one” (J Med Chem, 1992)
